SMILES strings stand for the structures. Values joined by “and” are separate entries in the source; they are usually repeats but may differ in a detail not shown here. Identical values can stand only once. Inconclusive results are not listed. Active and inactive are the calls of the source.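 How the source made its calls: active means valid dose-response fit whose half-maximal growth-inhibiting concentration is at or below a set limit above the top tested dose; inconclusive means flat fit with effect between 30 and 70%, or poor fit; inactive means half-maximal concentration above a set limit.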

The first assay can be described thus: antibacterial activity against Clostridioides difficile – 10-point retest, dose response (AID 1259246). The following applies: Clostridioides difficile clinical isolate growth, OD600, 24 h; at 60 µM (top of the series).
As to `CN(C)CC(=O)N1[C@H](C#N)[C@H](c2ccc(C#CC3CCCCC3)cc2)[C@H]1CO`, the activity change, negative = inhibition is 6.71% (inactive).
As to `O=C(C[C@H]1C[C@@H]2c3cc(NC(=O)Nc4ccc(F)cc4)ccc3O[C@@H]2[C@@H](CO)O1)NC1CCCCC1`, the activity change, negative = inhibition was 0.486% (inactive).
On the same count and under the same terms, then `COc1ccccc1CNC(=O)C[C@H]1C[C@H]2c3cc(NC(=O)NC4CCCC4)ccc3O[C@H]2[C@H](CO)O1`, with -5.15% (inactive).
Same read-out and setting: the same measure for `O=C(C[C@@H]1C[C@H]2c3cc(NC(=O)Nc4ccc(F)cc4)ccc3O[C@H]2[C@H](CO)O1)NC1CCCCC1`: 6.83% (inactive); for `Cc1noc(C)c1S(=O)(=O)Nc1ccc2c(c1)C(=O)N([C@@H](C)CO)C[C@H](C)[C@@H](CN(C)Cc1ccc3c(c1)OCO3)OCCCC[C@@H](C)O2`: 3.17% (inactive); for `COc1ccccc1C#Cc1ccc([C@H]2[C@@H](CO)N(C(=O)C3CCCCC3)[C@H]2C#N)cc1`: 2.35% (inactive).
For `COCC#Cc1ccc2c(c1)O[C@H](CN(C)Cc1ccc3c(c1)OCO3)[C@H](C)CN([C@H](C)CO)S2(=O)=O`, the activity change, negative = inhibition was 10.3% (inactive).
Regarding `C/C=C/c1ccc2c(c1)O[C@@H](CN(C)Cc1ccc(C(=O)O)cc1)[C@H](C)CN([C@H](C)CO)S2(=O)=O`, the activity change, negative = inhibition is 8.2% (inactive).
As for `COc1ccccc1CNC(=O)C[C@H]1C[C@@H]2c3cc(NC(=O)C4CCC4)ccc3O[C@@H]2[C@@H](CO)O1`, the activity change, negative = inhibition was 2.54% (inactive).
`CO[C@H]1CN(C)C(=O)c2ccc(NC(=O)c3ccc(-c4ccccc4)cc3)cc2OC[C@@H](C)NC[C@@H]1C`: the activity change, negative = inhibition was 12.9% (inactive).

The same assay, now with this note: Clostridioides difficile clinical isolate growth, OD600, 24 h; at 68 µM (top of the series).
Regarding `O=C(C[C@H]1C[C@@H]2c3cc(NS(=O)(=O)c4ccc(F)cc4)ccc3O[C@@H]2[C@@H](CO)O1)NCc1ccc(Cl)cc1`, the activity change, negative = inhibition is 8.4% (inactive).

The assay is the same for the next values; noted with them: Clostridioides difficile clinical isolate growth, OD600, 24 h; at 120 µM (top of the series).
In the case of `C[C@@H]1CN([C@H](C)CO)S(=O)(=O)c2ccc(C#CC3CCCC3)cc2O[C@H]1CN(C)Cc1cncnc1`, the activity change, negative = inhibition was 38.8% (inactive).
With `C[C@@H]1CN([C@H](C)CO)C(=O)c2cccc(NC(=O)Nc3ccc4c(c3)OCO4)c2O[C@H]1CN(C)Cc1ccc(-c2ccccc2)cc1`, the activity change, negative = inhibition is 6.58% (inactive).
`C[C@@H]1CN([C@@H](C)CO)S(=O)(=O)c2ccc(C#CCN(C)C)cc2O[C@@H]1CN(C)Cc1ccc2c(c1)OCO2`: the activity change, negative = inhibition is 2.58% (inactive).
Regarding `CC(C)CC#Cc1ccc2c(c1)O[C@@H](CN(C)Cc1ccccc1)[C@H](C)CN([C@@H](C)CO)S2(=O)=O`, the activity change, negative = inhibition is 32.1% (inactive).
With `C[C@H]1CN([C@@H](C)CO)C(=O)c2cccc(NC(=O)Nc3ccccc3)c2O[C@H]1CN(C)Cc1ccc(Oc2ccccc2)cc1`, the activity change, negative = inhibition was 24.3% (inactive).
In the case of `C[C@H](CO)N1C[C@H](C)[C@@H](CN(C)Cc2ccncc2)Oc2cc(-c3ccccc3)ccc2S1(=O)=O`, the activity change, negative = inhibition is 21.1% (inactive).
Regarding `C[C@@H]1CN([C@@H](C)CO)C(=O)Cc2cc(NC(=O)C3CC3)ccc2O[C@@H]1CN(C)Cc1ccc(Oc2ccccc2)cc1`, the activity change, negative = inhibition is 21.3% (inactive).
Still for that read-out and setting: the same measure for `C[C@@H]1CN([C@@H](C)CO)S(=O)(=O)c2ccc(C#CC3CCCCC3)cc2O[C@@H]1CN(C)Cc1cccnc1`: 13.1% (inactive).
Turning to `O=C(O)C[C@H]1C[C@@H]2c3cc(NC(=O)NC4CCCC4)ccc3O[C@@H]2[C@@H](CO)O1`, the activity change, negative = inhibition was 2.6% (inactive).
As to `CO[C@@H]1CN(C)C(=O)c2ccc(NC(=O)c3nc4ccccc4s3)cc2OC[C@H](C)N(Cc2ccncc2)C[C@@H]1C`, the activity change, negative = inhibition is 10.8% (inactive).
With `O=C(C[C@@H]1C[C@@H]2c3cc(NC(=O)Nc4ccc(F)cc4)ccc3O[C@@H]2[C@H](CO)O1)NC1CCCCC1`, the activity change, negative = inhibition was -4.54% (inactive).
On to `CNC[C@@H]1Oc2cc(Br)ccc2S(=O)(=O)N([C@H](C)CO)C[C@H]1C`, for which the activity change, negative = inhibition is 2.27% (inactive).
As to `CO[C@@H]1CN(C)C(=O)c2cc(NC(=O)c3ccc(-c4ccccc4)cc3)ccc2OC[C@@H](C)NC[C@@H]1C`, the activity change, negative = inhibition is 6.12% (inactive).
Consider `N#C[C@H]1[C@@H](c2ccc(C#CC3CCCCC3)cc2)[C@@H](CO)N1C(=O)Cc1ccccn1`, for which the activity change, negative = inhibition was 40.2% (inactive).
Take `CO[C@@H]1CN(C)C(=O)c2ccc(NC(=O)c3ccc(-c4ccccc4)cc3)cc2OC[C@H](C)NC[C@H]1C`: the activity change, negative = inhibition is 8.57% (inactive).
As for `Cc1cc(C(=O)Nc2cccc3c2O[C@H](CN(C)Cc2ccc(-c4ccccc4)cc2)[C@H](C)CN([C@@H](C)CO)C3=O)n(C)n1`, the activity change, negative = inhibition is 0.388% (inactive).
Same read-out and setting: the same measure for `C[C@@H]1CCCCO[C@H](CN(C)S(=O)(=O)c2ccc(F)cc2)[C@@H](C)CN([C@@H](C)CO)C(=O)c2cc(NC(=O)Nc3cccc4ccccc34)ccc2O1`: 19.1% (inactive); for `C[C@H]1CN([C@@H](C)CO)S(=O)(=O)c2ccc(C#Cc3ccccc3F)cc2O[C@@H]1CN(C)C`: 10.1% (inactive).
Regarding `CO[C@H]1CN(C)C(=O)c2ccc(NC(=O)c3ccc(-c4ccccc4)cc3)cc2OC[C@@H](C)NC[C@H]1C`, the activity change, negative = inhibition was 31.5% (inactive).
Same read-out and setting: the same measure for `CC(C)CC#Cc1ccc2c(c1)O[C@H](CN(C)Cc1ccc(F)cc1)[C@H](C)CN([C@H](C)CO)S2(=O)=O`: 28% (inactive) and 85.7% (inactive); for `C[C@@H]1CN([C@H](C)CO)C(=O)c2cccc(NC(=O)Nc3ccc(C(F)(F)F)cc3)c2O[C@@H]1CN(C)C(=O)NC1CCCCC1`: 7.85% (inactive); for `C[C@H](CO)N1C[C@H](C)[C@@H](CN(C)Cc2ccc(-c3ccccc3)cc2)Oc2ccc(NC(=O)C3CC3)cc2CC1=O`: 25.6% (inactive).
Take `O=C(N[C@H]1CC[C@H](CCNS(=O)(=O)c2ccc(Cl)cc2)O[C@H]1CO)c1ccccn1`: the activity change, negative = inhibition was -10.3% (inactive).
`O=C(C[C@H]1C[C@H]2c3cc(NC(=O)C4CCC4)ccc3O[C@H]2[C@@H](CO)O1)NCc1ccc(Cl)cc1`: the activity change, negative = inhibition is 2.85% (inactive).
Same read-out and setting: then `COc1ccc(-c2ccc([C@H]3[C@H](C#N)N(C(=O)C4CCCC4)[C@H]3CO)cc2)cc1`, with 5.91% (inactive); and `CC(C)CC#Cc1ccc2c(c1)O[C@H](CN(C)Cc1ccc3c(c1)OCO3)[C@@H](C)CN([C@@H](C)CO)S2(=O)=O`, with 21.9% (inactive); and `COc1ccc(NC(=O)Nc2cccc3c2O[C@@H](CN(C)Cc2ccc(Oc4ccccc4)cc2)[C@@H](C)CN([C@H](C)CO)C3=O)cc1`, with 38.3% (inactive).
For the compound `C[C@@H]1CN([C@@H](C)CO)S(=O)(=O)c2ccc(C#CCN(C)C)cc2O[C@@H]1CN(C)Cc1ccc(F)cc1`, the activity change, negative = inhibition is 4.72% (inactive).
With `COc1cccc(NC(=O)N(C)C[C@@H]2Oc3cc(/C=C/c4ccccc4)ccc3S(=O)(=O)N([C@@H](C)CO)C[C@H]2C)c1`, the activity change, negative = inhibition is 19.6% (inactive).
Take `O=C(C[C@H]1C[C@H]2c3cc(NS(=O)(=O)c4ccc(F)cc4)ccc3O[C@H]2[C@@H](CO)O1)NCc1ccc(-c2ccccc2)cc1`: the activity change, negative = inhibition is 10.6% (inactive).
As to `COc1ccc(NC(=O)Nc2cccc3c2O[C@H](CN(C)Cc2ccc(Oc4ccccc4)cc2)[C@H](C)CN([C@H](C)CO)C3=O)cc1`, the activity change, negative = inhibition is -0.653% (inactive).
As for `C[C@@H]1CN([C@H](C)CO)C(=O)c2cccc(NC(=O)Nc3ccccc3)c2O[C@@H]1CN(C)Cc1ccc(Oc2ccccc2)cc1`, the activity change, negative = inhibition was 32.9% (inactive).
Take `C[C@@H]1CN([C@@H](C)CO)C(=O)Cc2cc(NC(=O)C3CC3)ccc2O[C@@H]1CN(C)Cc1ccc(C(F)(F)F)cc1`: the activity change, negative = inhibition was 21.2% (inactive).
Same read-out and setting: the same measure for `C[C@@H]1CN([C@H](C)CO)C(=O)Cc2cc(NC(=O)CCCN(C)C)ccc2O[C@H]1CN(C)C`: 0.476% (inactive); for `C[C@@H]1CN([C@@H](C)CO)S(=O)(=O)c2ccc(C#CC3CCCC3)cc2O[C@H]1CN(C)Cc1cccnc1`: 23.5% (inactive).
For the compound `CC(C)CC#Cc1ccc2c(c1)O[C@@H](CN(C)Cc1ccc3c(c1)OCO3)[C@@H](C)CN([C@@H](C)CO)S2(=O)=O`, the activity change, negative = inhibition was 22.9% (inactive).
The same measure, in the same setting: the same measure for `O=C(C[C@@H]1C[C@@H]2c3cc(NC(=O)C4CCC4)ccc3O[C@@H]2[C@H](CO)O1)NCc1ccc(Cl)cc1`: -2.36% (inactive).

The same assay, now with this note: Clostridioides difficile clinical isolate growth, OD600, 24 h; at 135 µM (top of the series).
As for `C[C@H]1CN([C@@H](C)CO)C(=O)Cc2cc(NC(=O)CCCN(C)C)ccc2O[C@@H]1CN(C)Cc1ccc(-c2ccccc2)cc1`, the activity change, negative = inhibition was -3.4% (inactive).
Consider `C[C@@H]1CN([C@H](C)CO)C(=O)c2cccc(NC(=O)Nc3ccc4c(c3)OCO4)c2O[C@@H]1CN(C)Cc1ccc(-c2ccccc2)cc1`, for which the activity change, negative = inhibition was 12.1% (inactive).
Still for that read-out and setting: the same measure for `CO[C@@H]1CN(C)C(=O)c2cc(NC(=O)c3nc4ccccc4s3)ccc2OC[C@@H](C)N(Cc2ccncc2)C[C@H]1C`: 14.2% (inactive); for `C[C@@H]1CN([C@@H](C)CO)C(=O)Cc2cc(NC(=O)C3CC3)ccc2O[C@@H]1CN(C)Cc1ccc(Cl)c(Cl)c1`: 16.4% (inactive).
Consider `COc1ccc(CN(C)C[C@H]2Oc3ccc(NC(=O)C4CC4)cc3CC(=O)N([C@H](C)CO)C[C@H]2C)cc1`, for which the activity change, negative = inhibition was 0.998% (inactive).
For the compound `COc1ccccc1CNC(=O)C[C@H]1C[C@H]2c3cc(NC(=O)NC4CCCC4)ccc3O[C@H]2[C@@H](CO)O1`, the activity change, negative = inhibition is 4.17% (inactive).
Regarding `C[C@@H]1CN([C@@H](C)CO)C(=O)Cc2cc(NS(C)(=O)=O)ccc2O[C@@H]1CN(C)Cc1ccc(Oc2ccccc2)cc1`, the activity change, negative = inhibition was 7.12% (inactive).

Source of the values: PubChem BioAssay AID1259246 (Broad Institute, 2017).
